Assay results: the supplement of paper PMC11208160

test: recombinant UMI read abundance after kanamycin selection (control-corrected) (log10(CPM+1)); higher = more efficient recombination; extreme values may be limits of the assay; sequences stand for … in AGTGCAGAGAAAATCGGCCAGTTTTCTCTGCCTGCAGTCCGCATGCCGTGGGACCCCTTGGGTTCTAACCTGTTGCCTAGATTTATGCAGCGGACTGCCTTTCTCCCAAAGTGATAAACCGG…AGGTTGGTTTCACT; site = the 11-nt donor
Experimental: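 Pooled E. coli donor-specificity screen for the IS621 bridge recombinase. Each library member carries a reprogrammed 11-nt donor and a full-length LE bridge RNA expressed in cis from the natural promoter, with a paired donor-binding loop (8-nt LDG + 4-nt RDG) and a target-binding loop fixed to T5. It is co-electroporated with a T5 target plasmid; recombinase is induced with 0.07 mM IPTG and recombinants are selected on kanamycin. UMIs are counted as CPM, averaged over two biological replicates and corrected by the unselected control. Molecule = full bridge RNA written as DNA, built from the T5 scaffold: LDG = donor specificity nt 1-8, RDG = reverse complement of nt 8-11.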
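Note: IS621 bridge recombinase in Escherichia coli cells against a fixed T5 target plasmid.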

Sequence	recombinant UMI read abundance (log10)
AATGTGTCATGGACCGGTTTTCCCGGTAATCCGTATTTGAC (site AATATGTCTGT)	0.433
AATGTGTCATGGACCGGTTTTCCCGGTAATCCGTATTTGAC (site AATCTGTCTGT)	0
AATGTGTCATGGACCGGTTTTCCCGGTAATCCGTATTTGAC (site AATGAGTCTGT)	0
AATGTGTCATGGACCGGTTTTCCCGGTAATCCGTATTTGAC (site AATGCGTCTGT)	0
AATGTGTCATGGACCGGTTTTCCCGGTAATCCGTATTTGAC (site AATGGGTCTGT)	0
AATGTGTCATGGACCGGTTTTCCCGGTAATCCGTATTTGAC (site AATGTATCTGT)	1.2
AATGTGTCATGGACCGGTTTTCCCGGTAATCCGTATTTGAC (site AATGTCTCTGT)	0
AATGTGTCATGGACCGGTTTTCCCGGTAATCCGTATTTGAC (site AATGTGACTGT)	0.00331
AATGTGTCATGGACCGGTTTTCCCGGTAATCCGTATTTGAC (site AATGTGCCTGT)	0
AATGTGTCATGGACCGGTTTTCCCGGTAATCCGTATTTGAC (site AATGTGGCTGT)	0
AATGTGTCATGGACCGGTTTTCCCGGTAATCCGTATTTGAC (site AATGTGTCTAT)	0.00893
AATGTGTCATGGACCGGTTTTCCCGGTAATCCGTATTTGAC (site AATGTGTCTCT)	0.028
AATGTGTCATGGACCGGTTTTCCCGGTAATCCGTATTTGAC (site AATGTGTCTGA)	0
AATGTGTCATGGACCGGTTTTCCCGGTAATCCGTATTTGAC (site AATGTGTCTGC)	0
AATGTGTCATGGACCGGTTTTCCCGGTAATCCGTATTTGAC (site AATGTGTCTGG)	0
AATGTGTCATGGACCGGTTTTCCCGGTAATCCGTATTTGAC (site AATGTGTCTGT)	1.77
AATGTGTCATGGACCGGTTTTCCCGGTAATCCGTATTTGAC (site AATGTGTCTTT)	0.181
AATGTGTCATGGACCGGTTTTCCCGGTAATCCGTATTTGAC (site AATGTTTCTGT)	0
AATGTGTCATGGACCGGTTTTCCCGGTAATCCGTATTTGAC (site AATTTGTCTGT)	0
AATGTGTCATGGACCGGTTTTCCCGGTAATCCGTATTTGAC (site ACTGTGTCTGT)	0
AATGTGTCATGGACCGGTTTTCCCGGTAATCCGTATTTGAC (site AGTGTGTCTGT)	0
AATGTGTCATGGACCGGTTTTCCCGGTAATCCGTATTTGAC (site ATTGTGTCTGT)	0.71

Sequence	recombinant UMI read abundance (log10)
AATGTGTCATGGACCGGTTTTCCCGGTAATCCGTATTTGAC (site CATGTGTCTGT)	0.999
AATGTGTCATGGACCGGTTTTCCCGGTAATCCGTATTTGAC (site GATGTGTCTGT)	0
AATGTGTCATGGACCGGTTTTCCCGGTAATCCGTATTTGAC (site TATGTGTCTGT)	1.95
AATGTGTCATGGACCGGTTTTCCCGGTAATCCGTATTTGTC (site AATGTGTCTGA)	2.97
AATGTGTCATGGACCGGTTTTCCCGGTAATCCGTATTTGTC (site AATGTGTCTGC)	0.999
AATGTGTCATGGACCGGTTTTCCCGGTAATCCGTATTTGTC (site AATGTGTCTGG)	1.29
AATGTGTCATGGACCGGTTTTCCCGGTAATCCGTATTTGTC (site AATGTGTCTGT)	0.364
AATTACGCATGGACCGGTTTTCCCGGTAATCCGTATTTGGA (site AATTAAGCTTC)	0.428
AATTACGCATGGACCGGTTTTCCCGGTAATCCGTATTTGGA (site AATTACGCTTC)	0.807
AATTACGCATGGACCGGTTTTCCCGGTAATCCGTATTTGGA (site AATTAGGCTTC)	0.158
AATTACGCATGGACCGGTTTTCCCGGTAATCCGTATTTGGA (site AATTATGCTTC)	0.344
AATTATGCATGGACCGGTTTTCCCGGTAATCCGTATTTGCA (site AATTATGCTTA)	0.00932
AATTATGCATGGACCGGTTTTCCCGGTAATCCGTATTTGCA (site AATTATGCTTC)	0.00784
AATTATGCATGGACCGGTTTTCCCGGTAATCCGTATTTGCA (site AATTATGCTTG)	1.85
AATTATGCATGGACCGGTTTTCCCGGTAATCCGTATTTGCA (site AATTATGCTTT)	0.00931
AATTCTGCATGGACCGGTTTTCCCGGTAATCCGTATTTGGA (site AATTATGCTTC)	0.384
AATTCTGCATGGACCGGTTTTCCCGGTAATCCGTATTTGGA (site AATTCTGCTTC)	0.349
AATTCTGCATGGACCGGTTTTCCCGGTAATCCGTATTTGGA (site AATTGTGCTTC)	0.0372
AATTCTGCATGGACCGGTTTTCCCGGTAATCCGTATTTGGA (site AATTTTGCTTC)	0.00758
AATTGGACATGGACCGGTTTTCCCGGTAATCCGTATTTGAC (site AATTGGACTGT)	1.21
AATTGGACATGGACCGGTTTTCCCGGTAATCCGTATTTGAC (site CATTGGACTGT)	0.955
AATTGGACATGGACCGGTTTTCCCGGTAATCCGTATTTGAC (site GATTGGACTGT)	0.231

Sequence	recombinant UMI read abundance (log10)
AATTGGACATGGACCGGTTTTCCCGGTAATCCGTATTTGAC (site TATTGGACTGT)	1.67
AATTGTACATGGACCGGTTTTCCCGGTAATCCGTATTTGTC (site AATTGTACTGA)	0.692
AATTGTGCATGGACCGGTTTTCCCGGTAATCCGTATTTGAC (site AATTGTGCTGT)	2.25
AATTGTGCATGGACCGGTTTTCCCGGTAATCCGTATTTGCC (site AATTGTGCTGG)	0.735
AATTTAACATGGACCGGTTTTCCCGGTAATCCGTATTTGCT (site AATATAACTAG)	1.68
AATTTAACATGGACCGGTTTTCCCGGTAATCCGTATTTGCT (site AATCTAACTAG)	1.95
AATTTAACATGGACCGGTTTTCCCGGTAATCCGTATTTGCT (site AATGTAACTAG)	0.828
AATTTAACATGGACCGGTTTTCCCGGTAATCCGTATTTGCT (site AATTTAACTAG)	2.28
AATTTATCATGGACCGGTTTTCCCGGTAATCCGTATTTGTT (site AATTTATCTAA)	0.558
ACAAACCCATGGACCGGTTTTCCCGGTAATCCGTATTTGGG (site ACAAACCCTCC)	0
ACAAATCCATGGACCGGTTTTCCCGGTAATCCGTATTTGAC (site ACAAATCCTGT)	0.255
ACAAATCCATGGACCGGTTTTCCCGGTAATCCGTATTTGAC (site ACACATCCTGT)	0
ACAAATCCATGGACCGGTTTTCCCGGTAATCCGTATTTGAC (site ACAGATCCTGT)	0
ACAAATCCATGGACCGGTTTTCCCGGTAATCCGTATTTGAC (site ACATATCCTGT)	0
ACAATCGCATGGACCGGTTTTCCCGGTAATCCGTATTTGAA (site ACAATCGCTTT)	2.55
ACAATGTCATGGACCGGTTTTCCCGGTAATCCGTATTTGCG (site ACAATGTCTCG)	3.04
ACACAAACATGGACCGGTTTTCCCGGTAATCCGTATTTGTC (site ACACAAACTGA)	2.41
ACACAAACATGGACCGGTTTTCCCGGTAATCCGTATTTGTC (site ACACCAACTGA)	0
ACACAAACATGGACCGGTTTTCCCGGTAATCCGTATTTGTC (site ACACGAACTGA)	0
ACACAAACATGGACCGGTTTTCCCGGTAATCCGTATTTGTC (site ACACTAACTGA)	0
ACACAACCATGGACCGGTTTTCCCGGTAATCCGTATTTGAC (site ACACAACCTGT)	0
